Source: ChEMBL document CHEMBL4665642, “Anticancer profile of newly synthesized BRAF inhibitors possess 5-(pyrimidin-4-yl)imidazo[2,1-b]thiazole scaffold” (Bioorg Med Chem, 2019)

How the values were obtained:
[1] = test system: SK-MEL-28; experiment: Cytotoxicity against human SK-MEL-28 cells assessed as reduction in cell viability by MTT assay; assay type: functional, cell-based
[2] = test system: A-375; experiment: Cytotoxicity against human A-375 cells assessed as reduction in cell viability by MTT assay; assay type: functional, cell-based
[3] = test system: L132; experiment: Cytotoxicity against human L132 cells assessed as reduction in cell viability by MTT assay; assay type: cell-based
[4] = target: RAF proto-oncogene serine/threonine-protein kinase (Homo sapiens, UniProt P04049); experiment: Inhibition of human CRAF using MEK1 as substrate by [gamma-33P]-ATP assay
[5] = target: Serine/threonine-protein kinase B-raf (Homo sapiens, UniProt P15056); experiment: Inhibition of human BRAF using MEK1 as substrate by […] assay
[6] = target: Serine/threonine-protein kinase B-raf (Homo sapiens, UniProt P15056, V600E); experiment: Inhibition of human BRAF V600E mutant using MEK1 as substrate by […] assay
Chain of Serine/threonine-protein kinase B-raf (Homo sapiens, UniProt P15056, V600E) (P15056 2-766 V600E limits assumed): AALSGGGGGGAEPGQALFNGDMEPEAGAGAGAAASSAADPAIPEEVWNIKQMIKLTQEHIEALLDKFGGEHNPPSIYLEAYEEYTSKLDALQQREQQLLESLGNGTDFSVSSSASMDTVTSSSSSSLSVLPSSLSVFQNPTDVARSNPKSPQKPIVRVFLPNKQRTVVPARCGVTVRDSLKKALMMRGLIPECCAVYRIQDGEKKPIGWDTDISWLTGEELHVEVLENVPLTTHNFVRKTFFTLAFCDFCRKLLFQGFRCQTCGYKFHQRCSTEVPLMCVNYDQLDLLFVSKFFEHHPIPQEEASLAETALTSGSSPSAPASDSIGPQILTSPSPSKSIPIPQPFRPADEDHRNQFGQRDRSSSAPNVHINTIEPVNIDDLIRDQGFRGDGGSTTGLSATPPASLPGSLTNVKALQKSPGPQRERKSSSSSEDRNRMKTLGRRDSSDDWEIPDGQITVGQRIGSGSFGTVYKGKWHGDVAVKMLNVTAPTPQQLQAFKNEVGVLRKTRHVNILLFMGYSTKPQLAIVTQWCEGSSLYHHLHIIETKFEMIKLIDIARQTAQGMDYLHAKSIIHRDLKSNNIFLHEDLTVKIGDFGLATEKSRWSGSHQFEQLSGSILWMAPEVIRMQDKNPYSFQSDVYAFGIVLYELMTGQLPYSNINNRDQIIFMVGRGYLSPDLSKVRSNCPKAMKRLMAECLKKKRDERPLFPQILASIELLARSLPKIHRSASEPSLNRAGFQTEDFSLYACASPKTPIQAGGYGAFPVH

Chain of Serine/threonine-protein kinase B-raf (Homo sapiens, UniProt P15056) (P15056 whole entry): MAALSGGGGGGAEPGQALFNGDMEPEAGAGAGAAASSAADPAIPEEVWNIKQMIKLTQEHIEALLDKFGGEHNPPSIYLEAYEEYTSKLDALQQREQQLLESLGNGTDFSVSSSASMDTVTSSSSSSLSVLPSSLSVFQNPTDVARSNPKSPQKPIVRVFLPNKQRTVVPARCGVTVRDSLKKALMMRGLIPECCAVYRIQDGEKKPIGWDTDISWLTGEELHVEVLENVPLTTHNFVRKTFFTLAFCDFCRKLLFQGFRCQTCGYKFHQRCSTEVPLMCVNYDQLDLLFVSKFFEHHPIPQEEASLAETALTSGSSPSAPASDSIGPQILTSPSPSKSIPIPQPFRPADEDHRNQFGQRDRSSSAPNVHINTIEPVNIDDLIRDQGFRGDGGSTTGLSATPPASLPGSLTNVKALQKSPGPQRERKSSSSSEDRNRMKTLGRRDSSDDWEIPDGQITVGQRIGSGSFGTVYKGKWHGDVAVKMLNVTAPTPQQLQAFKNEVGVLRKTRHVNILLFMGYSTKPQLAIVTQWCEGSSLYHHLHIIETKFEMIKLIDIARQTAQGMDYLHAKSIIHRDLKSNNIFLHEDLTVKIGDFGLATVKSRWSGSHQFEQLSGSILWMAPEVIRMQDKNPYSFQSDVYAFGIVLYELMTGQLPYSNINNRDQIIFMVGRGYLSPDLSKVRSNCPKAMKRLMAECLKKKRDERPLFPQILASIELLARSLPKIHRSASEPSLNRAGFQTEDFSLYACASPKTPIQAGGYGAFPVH
Chain of RAF proto-oncogene serine/threonine-protein kinase (P04049 whole entry): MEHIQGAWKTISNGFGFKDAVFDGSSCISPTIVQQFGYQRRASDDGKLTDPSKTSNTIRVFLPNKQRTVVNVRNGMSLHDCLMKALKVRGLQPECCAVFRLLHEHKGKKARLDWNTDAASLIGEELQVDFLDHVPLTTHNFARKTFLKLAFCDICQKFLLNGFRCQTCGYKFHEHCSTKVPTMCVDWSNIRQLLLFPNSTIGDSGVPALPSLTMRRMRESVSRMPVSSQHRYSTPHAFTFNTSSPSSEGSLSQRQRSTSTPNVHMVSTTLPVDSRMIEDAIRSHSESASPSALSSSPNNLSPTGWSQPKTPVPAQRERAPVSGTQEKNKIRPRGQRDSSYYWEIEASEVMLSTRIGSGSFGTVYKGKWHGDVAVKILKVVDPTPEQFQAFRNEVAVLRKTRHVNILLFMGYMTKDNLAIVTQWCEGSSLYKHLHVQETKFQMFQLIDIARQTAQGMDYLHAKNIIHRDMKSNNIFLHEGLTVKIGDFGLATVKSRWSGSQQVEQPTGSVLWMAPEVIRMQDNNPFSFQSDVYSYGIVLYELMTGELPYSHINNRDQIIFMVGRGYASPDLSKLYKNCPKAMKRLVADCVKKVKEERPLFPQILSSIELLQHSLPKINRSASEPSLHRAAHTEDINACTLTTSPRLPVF

IC50 [4] [µM]	IC50 [5] [µM]	IC50 [6] [µM]	Compound	IC50 [1] [µM]	IC50 [2] [µM]	IC50 [3] [µM]
			CNC(=O)c1cc(Oc2ccc(NC(=O)Nc3ccc(Cl)c(C(F)(F)F)c3)cc2)ccn1 [SORAFENIB]	9.45	7.88	
			O=C(NCCCNc1nccc(-c2c(-c3cccc(F)c3)nc3sccn23)n1)c1ccc(Cl)cc1	> 20	13.7	
			Cc1ccc(C(=O)NCCNc2nccc(-c3c(-c4cccc(F)c4)nc4sccn34)n2)cc1	18.8	5.88	245
0.0261	0.0551	0.0251	COc1ccc(S(=O)(=O)NCCCNc2nccc(-c3c(-c4cccc(F)c4)nc4sccn34)n2)cc1	8.98	5.51	
			Cc1ccc(S(=O)(=O)NCCNc2nccc(-c3c(-c4cccc(F)c4)nc4sccn34)n2)cc1	> 20	15.4	
